Source: patent publication US20020013306A1, “TERPYRIDINE-PLATINUM(II) COMPLEXES” (priority 1996, published 2002)
Where “and” joins values, the source holds several entries; their conditions need not be identical. Equal values may be shown once. Read-outs that look alike come from different tables or passages of the source.

Legend:
[1] = test system: T. brucei (S427) bloodstream trypomastigotes; test: Trypanosoma brucei bloodstream trypomastigote culture; format: cell-based
[2] = test system: CH1cis^R human ovarian carcinoma cell line (cisplatin resistant); test: 96 h growth inhibition, sulforhodamine B assay, CH1cisR; format: cell-based; settings: for IC50: 96 h exposure, growth inhibition, v = variable (mean); for RF resistance factor: IC50 resistant line/IC50 parent line: CH1cis^R / CH1
calf-thymus (ct)-DNA = settings: literature [1]-[3]; cited from earlier work
T. cruzi (MHOM/BR/00/Y) = test: Trypanosoma cruzi in mouse peritoneal macrophages; format: cell-based
Procedure: Trypanosoma cruzi: […] Drug activity was determined from the % of infected macrophages in treated cultures. Nifurtimox was used as the positive control.

[3] = test system: CH1 human ovarian carcinoma cell line; test: 96 h growth inhibition, sulforhodamine B assay, CH1; format: cell-based; settings: 96 h exposure, v = variable (mean)
[4] = test system: CH1dox^R human ovarian carcinoma cell line (doxorubicin resistant); test: 96 h growth inhibition, sulforhodamine B assay, CH1doxR; format: cell-based; settings: for IC50: 96 h exposure, growth inhibition; for RF resistance factor: IC50 resistant line/IC50 parent line: CH1dox^R / CH1
[5] = test system: A2780 human ovarian carcinoma cell line; test: 96 h growth inhibition, sulforhodamine B assay, A2780; format: cell-based; settings: 96 h exposure, v = variable (mean)
[6] = test system: A2780cis^R human ovarian carcinoma cell line (cisplatin resistant); test: 96 h growth inhibition, sulforhodamine B assay, A2780cisR; format: cell-based; settings: for IC50: 96 h exposure, growth inhibition, v = variable (mean); for RF resistance factor: IC50 resistant line/IC50 parent line: A2780cis^R / A2780
[7] = test system: SKOV3 human ovarian carcinoma cell line; test: 96 h growth inhibition, sulforhodamine B assay, SKOV3; format: cell-based; settings: 96 h exposure, v = variable (mean)
[8] = test system: P falciparum (chloroquin resistant strain K1); test: In vitro antimalarial activity, chloroquine resistant K1; settings: for % Inhibition (compound duplicates), K1 P. falciparum: duplicates (1),(2)
Procedure: Plasmodium falciparum: P falciparum (chloroquin resistant strain K1) was cultured at 37° C. in a 5% suspension of infected so erythrocytes (group A Rh^+) in complete medium as described by E L Elueze, S L Croft and D C Warhurst, J Antimicrobial Chemotherapy, 1996, 37, 511-518. The in vitro antimalarial activity of compounds were likewise determined according to their protocol. Mefloquin was used as the positive control.”

[9] = deuterated water; NMR immediately, 1, 2, 17 hours, one and two weeks
Procedure: A solution of (4-picoline) (4′-aziridinoterpyridine) platinum (II) tetrafluoroborate in deuterated water was prepared. NMR spectra were recorded immediately, after 1, 2 and 17 hours, then after one and two weeks.

[10] = Acid/base stability by NMR; settings: diethylamine in deuterated chloroform; directly afterwards and after 20 hours
Procedure: Diethylamine (2 ml) was added to a solution of 4′-aziridinoterpyridine (5 mg) in deuterated chloroform in a NMR tube.
NMR spectra were recorded immediately and after 1, 2, 4 and 24 hours.

[11] = read-out: IC50 (avg), K1 P. falciparum, average of duplicates

With [Cl-].[Cl-].[Pt+2].c1ccc(-c2cccc(-c3ccccn3)n2)nc1 [Compound A13, chloro(2,2′:6′,2″-terpyridine)platinum(II) chloride] the “% Inhibition, Trypanosoma brucei” value ([1]; 0.1 μM) was 26.2%, the “% Inhibition, Trypanosoma brucei” value ([1]; 0.3 μM) was 100% and the “% Inhibition, Trypanosoma brucei” value ([1]; 1 μM) was 100%. The “% Inhibition, Trypanosoma brucei” value ([1]; 3 μM) was 100%, the “% Inhibition, Trypanosoma brucei” value ([1]; 10 μM) was 100% and the “% Inhibition, Trypanosoma brucei” value ([1]; 30 μM) was 100%. For the same compound, the IC50 [2] was 6.4 µM, the “RF resistance factor: IC50 resistant line/IC50 parent line” value (shortened to “RF resistance factor”) [2] was 1 and the “binding association constant with ct-DNA” value (calf-thymus (ct)-DNA) was “essentially the same binding constant”. For the same compound, the “% Inhibition, Trypanosoma cruzi” value (T. cruzi (MHOM/BR/00/Y); 1 μM) was 52.0%, the “% Inhibition, Trypanosoma cruzi” value (T. cruzi (MHOM/BR/00/Y); 3 μM) was 76.0% and the “% Inhibition, Trypanosoma cruzi” value (T. cruzi (MHOM/BR/00/Y); 10 μM) was 99.0%. The “% Inhibition, Trypanosoma cruzi” value (T. cruzi (MHOM/BR/00/Y); 30 μM) was 99.3%, the IC50 [3] was 6.6 µM and the IC50 [4] was 3.75 µM. The “RF resistance factor” value [4] was 0.6, the IC50 [5] was 49 µM and the IC50 [6] was 41 µM. The “RF resistance factor” value [6] was 0.8 and the IC50 [7] was 19.5 µM.
For Cc1cc[n+]([Pt-2]23[n+]4ccccc4-c4cc(Cl)cc([n+]42)-c2cccc[n+]23)cc1.F[B-](F)(F)F.F[B-](F)(F)F [I], the “% Inhibition, Trypanosoma brucei” value ([1]; 0.1 μM) was 99.2%, the “% Inhibition, Trypanosoma brucei” value ([1]; 0.3 μM) was 83.8% and the “% Inhibition, Trypanosoma brucei” value ([1]; 1 μM) was 100%. For the same compound, the “% Inhibition, Trypanosoma brucei” value ([1]; 3 μM) was 100%, the “% Inhibition, Trypanosoma brucei” value ([1]; 10 μM) was 100% and the “% Inhibition, Trypanosoma brucei” value ([1]; 30 μM) was 100%. The IC50 [2] was 6.4 µM, the “RF resistance factor” value [2] was 1 and the “% Inhibition, Trypanosoma cruzi” value (T. cruzi (MHOM/BR/00/Y); 1 μM) was 59.7%. For the same compound, the “% Inhibition, Trypanosoma cruzi” value (T. cruzi (MHOM/BR/00/Y); 3 μM) was 73.5%, the “% Inhibition, Trypanosoma cruzi” value (T. cruzi (MHOM/BR/00/Y); 10 μM) was 97.0% and the “% Inhibition, Trypanosoma cruzi” value (T. cruzi (MHOM/BR/00/Y); 30 μM) was 100%. For the same compound, the IC50 [3] was 6.35 µM, the IC50 [4] was 0.425 µM and the “RF resistance factor” value [4] was 0.07. The IC50 [5] was 14.5 µM, the “% Inhibition (compound duplicates), K1 P. falciparum” value (“% Inhibition … K1 P. falciparum” below) ([8]; Concn. 15 μM) was 14.2% and 9.4% and the “% Inhibition … K1 P. falciparum” value ([8]; Concn. 30 μM) was 93.2% and 90.9%. The “% Inhibition … K1 P. falciparum” value ([8]; Concn. 75 μM) was 1.9% and 2.1%, the “% Inhibition … K1 P. falciparum” value ([8]; Concn. 375 μM) was 0% and the “% Inhibition … K1 P. falciparum” value ([8]; Concn. 1875 μM) was 0%. For the same compound, the “% Inhibition … K1 P. falciparum” value ([8]; Concn. 09375 μM) was 0%, the “% Inhibition … K1 P. falciparum” value ([8]; Concn. 046875 μM) was 0% and the “% Inhibition … K1 P. falciparum” value ([8]; Concn. 0234375 μM) was 0%. For the same compound, the IC50 [8, 11] was 20.6 µM, the IC50 ([8]; read-out: IC50, K1 P. falciparum, each duplicate (1),(2)) was 19.9 µM and 21.2 µM and the IC50 [6] was 14.5 µM. For the same compound, the “RF resistance factor” value [6] was 1 and the IC50 [7] was 5.6 µM.
For Cc1ccncc1.F[B-](F)(F)F.F[B-](F)(F)F.[Pt+2].c1ccc(-c2cc(N3CC3)cc(-c3ccccn3)n2)nc1 [T, (4-Picoline)(4′-Aziridino-2,2′:6′,2″-Terpyridine) Platinum (II) Tetra-fluoroborate], the “% Inhibition, Trypanosoma brucei” value ([1]; 0.1 μM) was 54.2%, the “% Inhibition, Trypanosoma brucei” value ([1]; 0.3 μM) was 78.9% and the “% Inhibition, Trypanosoma brucei” value ([1]; 1 μM) was 100%. The “% Inhibition, Trypanosoma brucei” value ([1]; 3 μM) was 100%, the “% Inhibition, Trypanosoma brucei” value ([1]; 10 μM) was 100% and the “% Inhibition, Trypanosoma brucei” value ([1]; 30 μM) was 100%. For the same compound, the “stability in aqueous solution” value [9] was “stable to nucleophilic attack by water under neutral conditions”, the IC50 [2] was 3.7 µM and the “% Inhibition, Trypanosoma cruzi” value (T. cruzi (MHOM/BR/00/Y); 1 μM) was 0%. For the same compound, the “% Inhibition, Trypanosoma cruzi” value (T. cruzi (MHOM/BR/00/Y); 3 μM) was 0%, the “% Inhibition, Trypanosoma cruzi” value (T. cruzi (MHOM/BR/00/Y); 10 μM) was 0% and the “% Inhibition, Trypanosoma cruzi” value (T. cruzi (MHOM/BR/00/Y); 30 μM) was 0%. For the same compound, the IC50 [3] was 4.6 µM, the IC50 [4] was 4.2 µM and the IC50 [5] was 7.7 µM. The IC50 [6] was 20 µM and the IC50 [7] was 19 µM.
In the case of Cc1cc[n+]([Pt-2]23[n+]4ccccc4-c4cc(-c5ccc(Br)cc5)cc([n+]42)-c2cccc[n+]23)cc1.F[B-](F)(F)F.F[B-](F)(F)F [Q], the “% Inhibition, Trypanosoma brucei” value ([1]; 0.1 μM) is reported as 0%, the “% Inhibition, Trypanosoma brucei” value ([1]; 0.3 μM) is reported as 100% and the “% Inhibition, Trypanosoma brucei” value ([1]; 1 μM) is reported as 100%. For the same compound, the “% Inhibition, Trypanosoma brucei” value ([1]; 3 μM) was 100%, the “% Inhibition, Trypanosoma brucei” value ([1]; 10 μM) was 100% and the “% Inhibition, Trypanosoma brucei” value ([1]; 30 μM) was 100%. The IC50 [2] was 5.8 µM, the “RF resistance factor” value [2] was 1.2 and the IC50 [3] was 5 µM. For the same compound, the IC50 [4] was 1.05 µM, the “RF resistance factor” value [4] was 0.2 and the IC50 [5] was 39 µM. For the same compound, the “% Inhibition … K1 P. falciparum” value ([8]; Concn. 15 μM) was 97.0%, the “% Inhibition … K1 P. falciparum” value ([8]; Concn. 30 μM) was 99.8% and the “% Inhibition … K1 P. falciparum” value ([8]; Concn. 75 μM) was 98.6%. The “% Inhibition … K1 P. falciparum” value ([8]; Concn. 375 μM) was 60.8%, the “% Inhibition … K1 P. falciparum” value ([8]; Concn. 1875 μM) was 46.1% and the “% Inhibition … K1 P. falciparum” value ([8]; Concn. 09375 μM) was 0%. For the same compound, the “% Inhibition … K1 P. falciparum” value ([8]; Concn. 046875 μM) was 0%, the “% Inhibition … K1 P. falciparum” value ([8]; Concn. 0234375 μM) was 0% and the IC50 [8, 11] was 2.4 µM. The IC50 [6] was 29.5 µM, the “RF resistance factor” value [6] was 0.8 and the IC50 [7] was greater than 100 µM.
For c1ccc(-c2cc(N3CC3)cc(-c3ccccn3)n2)nc1 [4′-aziridinoterpyridine, 4′-Aziridino-2,2′:6′,2″-Terpyridine], the stability to base [10] was “No change in the NMR spectrum”.
In the case of “hydroxyethanethiol-2,2′:6′,2″-terpyridine-platinum(II) [1,R═SCH2CH2OH, reference compound]”, the “binding association constant with ct-DNA” value (calf-thymus (ct)-DNA) is given as 83000 M⁻¹.
